tested on: Mus musculus; assay: Analgesic activity was determined after subcutaneous administration in mice using Eddy hot plate assay or Nilsen assay.; type: functional; conditions: sc

Row | Compound | ED50 [mg/kg]
1 | COc1cccc(C23CCCN(C)C(CC2)C3)c1.O=C(O)C(=O)O (stereo not drawn) | 5.7
2 | CN1CCCC2(c3ccccc3)CCC1C2.O=C(O)C(=O)O (stereo not drawn) | 11.7
3 | Br.CN1CCCC2(c3cccc(O)c3)CCC1C2 (stereo not drawn) | 16.2
4 | Br.Oc1cccc(C23CCCN(CCc4ccccc4)C(CC2)C3)c1 (stereo not drawn) | 4.5
5 | Br.C=CCN1CCCC2(c3cccc(OC)c3)CCC1C2 (stereo not drawn) | 20
6 | Br.COc1cccc(C23CCCNC(CC2)C3)c1 (stereo not drawn) | 4
7 | Br.COc1cccc(C23CCCN(CCc4ccccc4)C(CC2)C3)c1 (stereo not drawn) | 10.9
8 | COc1ccc2c3c1O[C@H]1[C@@H](O)C=C[C@H]4[C@@H](C2)N(C)CC[C@@]341.COc1ccc2c3c1O[C@H]1[C@@H](O)C=C[C@H]4[C@@H](C2)N(C)CC[C@@]341.O.O=P(O)(O)O.O=P(O)(O)O [CODEINE PHOSPHATE] | 6.8
